Measured values taken from patent US20240262815A1, “HETEROARYL DERIVATIVE, METHOD FOR PREPARING SAME, AND PHARMACEUTICAL COMPOSITION COMPRISING SAME AS ACTIVE INGREDIENT” (VORONOI INC., priority 2021, published 2024).

Tested on: SK-BR-3 cancer cells
Assay: Inhibitory activity against proliferation of SK-BR-3 cancer cells (CellTiter-Glo)
Format: cell-based
Details: Homo sapiens, SK-BR-3, 120 h, ErbB2-overexpressing SK-BR-3 cells, 120 hours after treatment
Procedure, shortened: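 Cells seeded 48 h before dosing (SK-BR-3 in McCOY'S 5A + 10% FBS; BT-474 in RPMI-1640 + 20% FBS), then exposed 120 h to 12 concentrations, 0.2 nM-5 μM final. Viability by CellTiter-Glo luminescence; GI50 from growth rate vs control, triplicate runs.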

Row | SMILES | GI50 [nM]
1 | C=CC(=O)Nc1cc(Nc2cc(N3OCC[C@@H]3c3cccc(-c4cc(F)cc(F)c4)c3)ncn2)c(OC)cc1N1CCO[C@H](C)C1 [Example 270, N-(5-((6-((R)-3-(3′,5′-difluoro-[1,1′-biphenyl]-3-yl)-isoxazolidin-2-yl)-pyrimidin-4-yl)-amino)-4-methoxy-2-((R)-2-methyl-morpholino)phen-yl)acrylamide] | < 50
2 | C=CCN1CCN(c2cc(OC)c(Nc3cc(N4OCC[C@@H]4c4cccc(-c5cc(F)cc(F)c5)c4)ncn3)cc2NC(=O)C=C)CC1 [Example 271, (R)-N-(2-(4-allyl-piperazin-1-yl)-5-((6-(3-(3′,5′-difluoro-[1,1′-biphen-yl]-3-yl)-isoxazolidin-2-yl)-pyrimidin-4-yl)-amino)-4-methoxy-phenyl)acrylamide] | < 50
3 | C=CC(=O)Nc1cc(Nc2cc(N3OCC[C@@H]3c3cccc(-c4cc(F)cc(F)c4)c3)ncn2)c(OC)cc1N1CCC(N2CCOCC2)CC1 [Example 272, (R)-N-(5-((6-(3-(3′,5′-difluoro-[1,1′-biphenyl]-3-yl)-isoxazolidin-2-yl)-pyrimidin-4-yl)-amino)-4-methoxy-2-(4-morpholino-piperidin-1-yl)-phenyl)acrylamide] | < 50
4 | C=CC(=O)Nc1cc(Nc2cc(N3OCC[C@@H]3c3cccc(-c4cc(F)cc(F)c4)c3)ncn2)c(OC)cc1N(C)CCN(C)C [Example 277, (R)-N-(5-((6-(3-(3′,5′-difluoro-[1,1′-biphenyl]-3-yl)-isoxazolidin-2-yl)-pyrimidin-4-yl)-amino)-2-((2-(dimethylamino)-ethyl)(methyl)-amino)-4-methoxy-phenyl)acrylamide] | < 50
5 | C=CC(=O)Nc1cc(Nc2cc(N3OCC[C@@H]3c3cccc(-c4cccc(F)c4)c3)ncn2)c(OC)cc1N1CCNC2(CC2)C1 [Example 291, (R)-N-(5-((6-(3-(3′-fluoro-[1,1′-biphenyl]-3-yl)-isoxazolidin-2-yl)-pyrimidin-4-yl)-amino)-4-methoxy-2-(4,7-diazaspiro-[2.5]octan-7-yl)-phenyl)acrylamide] | < 50
6 | C=CC(=O)Nc1cc(Nc2cc(N3OCC[C@@H]3c3cccc(C#Cc4ccccc4)c3)ncn2)c(OC)cc1N1CCN(C)CC1 [Example 296, (R)-N-(4-methoxy-2-(4-methylpiper-azin-1-yl)-5-((6-(3-(3-(phenyleth-ynyl)phenyl)isox-azolidin-2-yl)pyr-imidin-4-yl)amino)-phenyl)acrylamide] | 50 to 500
7 | C=CC(=O)Nc1cc(Nc2cc(N3OCC[C@@H]3c3cccc(-c4ccc(O)nc4)c3)ncn2)c(OC)cc1N1CCN(C)CC1 [Example 299, (R)-N-(5-((6-(3-(3-(6-hydroxypyridin-3-yl)phenyl)isox-azolidin-2-yl)pyr-imidin-4-yl)amino)-4-methoxy-2-(4-methylpiperazin-1-yl)phenyl)acryl-amide] | 500 to 5000
8 | C=CC(=O)Nc1cc(Nc2cc(N3OCC[C@@H]3c3cccc(C#CC(C)(C)C)c3)ncn2)c(OC)cc1N1CCN(C)CC1 [Example 311, (R)-N-(5-((6-(3-(3-(3,3-dimethyl-but-1-yn-1-yl)phen-yl)isoxazolidin-2-yl)pyrimidin-4-yl)-amino)-4-methoxy-2-(4-methylpiper-azin-1-yl)phenyl)-acrylamide] | 50 to 500
9 | C=CC(=O)Nc1cc(Nc2cc(N3OCC[C@@H]3c3cccc(C#Cc4cccc(O)c4)c3)ncn2)c(OC)cc1N(C)CCN(C)C [Example 312, (R)-N-(2-((2-(dimethylamino)-ethyl)(methyl)-amino)-5-((6-(3-(3-((3-hydroxy-phenyl)ethynyl)-phenyl)isoxazol-idin-2-yl)pyrim-idin-4-yl)amino)-4-methoxyphen-yl)acrylamide] | 50 to 500
10 | C=CC(=O)Nc1cc(Nc2cc(N3OCC[C@@H]3c3cccc(C#Cc4cccc(F)c4)c3)ncn2)c(OC)cc1N(C)CCN(C)C [Example 313, (R)-N-(2-((2-(dimethylamino)-ethyl)(methyl)-amino)-5-((6-(3-(3-((3-fluorophen-yl)ethynyl)phenyl)-isoxazolidin-2-yl)pyrimidin-4-yl)-amino)-4-methoxy-phenyl)acrylamide] | < 50
11 | C=CC(=O)Nc1cc(Nc2cc(N3OCC[C@@H]3c3cccc(-c4cccc(F)c4)c3)ncn2)c(OC)cc1N1CC2CCC(C1)N2C1CC1 [Example 316, N-(2-((1R,5S)-8-cyclopropyl-3,8-diazabicyclo-[3.2.1]octan-3-yl)-5-((6-((R)-3-(3′-fluoro-[1,1′-biphen-yl]-3-yl)isoxazol-idin-2-yl)pyrim-idin-4-yl)amino)-4-methoxyphenyl)-acrylamide] | 50 to 500
12 | C=CC(=O)Nc1cc(Nc2cc(N3OCC[C@@H]3c3cccc(-c4cccc(F)c4)c3)ncn2)c(OC)cc1N1CC2CN(C)CC2C1 (stereo partly drawn) [Example 319, N-(5-((6-((R)-3-(3′-fluoro-[1,1′-biphenyl]-3-yl)-isoxazolidin-2-yl)-pyrimidin-4-yl)-amino)-4-methoxy-2-(5-methylhexa-hydropyrrolo[3,4-c]pyrrol-2(1H)-yl)-phenyl)acrylamide] | < 50
13 | C=CC(=O)Nc1cc(Nc2cc(N3OCC[C@@H]3c3cccc(-c4cccc(F)c4)c3)ncn2)c(OC)cc1N1CC2(CNC2)C1 [Example 321, (R)-N-(5-((6-(3-(3′-fluoro-[1,1′-biphenyl]-3-yl)-isoxazolidin-2-yl)-pyrimidin-4-yl)-amino)-4-meth-oxy-2-(2,6-diaza-spiro[3.3]heptan-2-yl)phenyl)acryl-amide] | 50 to 500
14 | C=CC(=O)Nc1cc(Nc2cc(N3OCC[C@@H]3c3cccc(OCc4cccc(F)c4)c3)ncn2)c(OC)cc1N1CCN(C)CC1 [Example compound 83, (R)-N-(5-((6-(3-(3-((3-fluorobenzyl)oxy)phenyl)isoxazolidin-2-yl)pyrimidin-4-yl)amino)-4-methoxy-2-(4-methylpiperazin-1-yl)phenyl)acrylamide] | 50 to 500
15 | C=CC(=O)Nc1cc(Nc2cc(N3OCC[C@@H]3c3cccc(Oc4cccc(C(F)(F)F)c4)c3)ncn2)c(OC)cc1N1CCN(C)CC1 [Example compound 93, (R)-N-(4-methoxy-2-(4-methylpiperazin-1-yl)-5-((6-(3-(3-(3-(trifluoromethyl)phenoxy)phenyl)isoxazolidin-2-yl)pyrimidin-4-yl)amino)phenyl)acrylamide] | < 50
16 | C=CC(=O)Nc1cc(Nc2cc(N3OCC[C@@H]3c3cccc(Oc4cccc(C(F)(F)F)c4)c3)ncn2)c(OC)cc1N1CCC(N2CCN(C3CC3)CC2)CC1 [Example compound 94, (R)-N-(2-(4-(4-cyclopropylpiperazin-1-yl)piperidin-1-yl)-4-methoxy-5-((6-(3-(3-(3-(trifluoromethyl)phenoxy)phenyl)isoxazolidin-2-yl)pyrimidin-4-yl)amino)phenyl)acrylamide] | < 50
17 | C=CC(=O)Nc1cc(Nc2cc(N3OCCC3c3cccc(OCc4ccccn4)c3)ncn2)c(OC)cc1N1CC[C@@H](N(C)C)C1 (stereo partly drawn) [Example compound 97] | < 50
18 | C=CC(=O)Nc1cc(Nc2cc(N3OCC[C@@H]3c3cccc(OCc4cccc(C)n4)c3)ncn2)c(OC)cc1N1CCN(C)CC1 [Example compound 99, (R)-N-(4-methoxy-2-(4-methylpiperazin-1-yl)-5-((6-(3-(3-((6-methylpyridin-2-yl)methoxy)phenyl)isoxazolidin-2-yl)pyrimidin-4-yl)amino)phenyl)acrylamide] | 50 to 500
19 | C=CC(=O)Nc1cc(Nc2cc(N3OCC[C@@H]3c3cccc(OCc4cccc(C)n4)c3)ncn2)c(OC)cc1N1CCC(N2CCN(C3CC3)CC2)CC1 [Example compound 100, (R)-N-(2-(4-(4-cyclopropylpiperazin-1-yl)piperidin-1-yl)-4-methoxy-5-((6-(3-(3-((6-methylpyridin-2-yl)methoxy)phenyl)isoxazolidin-2-yl)pyrimidin-4-yl)amino)phenyl)acrylamide] | 50 to 500
20 | C=CC(=O)Nc1cc(Nc2cc(N3OCC[C@@H]3c3cccc(Oc4cc(F)ccc4F)c3)ncn2)c(OC)cc1N1CCN(C)CC1 [Example compound 103, (R)-N-(5-((6-(3-(3-(2,5-difluorophenoxy)phenyl)isoxazolidin-2-yl)pyrimidin-4-yl)amino)-4-methoxy-2-(4-methylpiperazin-1-yl)phenyl)acrylamide] | 50 to 500
21 | C=CC(=O)Nc1cc(Nc2cc(N3OCCC3c3ccc(Cl)c(OCc4cccc(F)c4)c3)ncn2)c(OC)cc1N1CCN(C)CC1 (stereo not drawn) [Example compound 115, N-(5-((6-(3-(4-chloro-3-((3-fluorobenzyl)oxy)phenyl)isoxazolidin-2-yl)pyrimidin-4-yl)amino)-4-methoxy-2-(4-methylpiperazin-1-yl)phenyl)acrylamide] | 50 to 500
22 | C=CC(=O)Nc1cc(Nc2cc(N3OCCC3c3cccc(-c4ccoc4)c3)ncn2)c(OC)cc1N1CCC(N2CCN(C3CC3)CC2)CC1 (stereo not drawn) [Example compound 123, N-(2-(4-(4-cyclopropylpiperazin-1-yl)piperidin-1-yl)-5-((6-(3-(3-(furan-3-yl)phenyl)isoxazolidin-2-yl)pyrimidin-4-yl)amino)-4-methoxyphenyl)acrylamide] | < 50
23 | C=CC(=O)Nc1cc(Nc2cc(N3OCC[C@@H]3c3cc(F)cc(-c4cnn(C)c4)c3)ncn2)c(OC)cc1N1CCC(N2CCN(C3CC3)CC2)CC1 [Example compound 129, (R)-N-(2-(4-(4-cyclopropylpiperazin-1-yl)piperidin-1-yl)-5-((6-(3-(3-fluoro-5-(1-methyl-1H-pyrazol-4-yl)phenyl)isoxazolidin-2-yl)pyrimidin-4-yl)amino)-4-methoxyphenyl)acrylamide] | < 50
24 | C=CC(=O)Nc1cc(Nc2cc(N3OCC[C@@H]3c3cc(F)cc(-c4cccc(F)c4)c3)ncn2)c(OC)cc1N1CCN(C)CC1 [Example compound 130, (R)-N-(5-((6-(3-(3′,5-difluoro-[1,1′-biphenyl]-3-yl)isoxazolidin-2-yl)pyrimidin-4-yl)amino)-4-methoxy-2-(4-methylpiperazin-1-yl)phenyl)acrylamide] | < 50
